This note sets out measurements from PubChem BioAssay AID1963432 (Molecular Pharmacology Branch, DTP, NCI, 2024).

The assay deals with SYO-1 complex spheroid growth, percent test/control. Put plainly: Anticancer human tumor SYO-1 cell line growth inhibition [Asc].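 On all read-outs here: compound exposure lasted 7 days after spheroids grew 3 days.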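 On viability, T/C: 100% = DMSO vehicle control viability.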 To be noted: for viability, T/C: stronger effect = lower value. The protocol:
Multicellular complex tumor spheroid response to apoptosis pathway targeting inhibitors Alrizomadlin, Pelcitoclax, and Dasminapant in combination with a variety of drugs and investigational agents in selected tumor cell lines
The MDM2 inhibitor alrizomadlin, the Bcl-2/Bcl-xL inhibitor pelcitoclax, and the IAPs inhibitor dasminapant were evaluated both individually and in combination with standard of care and investigational anticancer small molecules within a complex spheroid model of solid tumors. . Complex spheroids include a stromal component modeled by human endothelial cells (HUVEC) and fibroblasts modeled by human mesenchymal stem cells (MSCs). The concentration ranges selected for each drug and investigational agent were based upon clinically achievable concentrations if the clinical Cmax of the agent was known.
Compounds. The drugs and investigational agents: alrizomadlin (APG-115; NSC831270), pelcitoclax (APG-1252; NSC835773), dasminapant (APG-1387;NSC834197), TAK-243 (NSC785004), copanlisib (NSC809693), olaparib (NSC753686), talazoparib (NSC767125), cobimetinib (NSC 768068), eltanexor (KPT-8602, NSC 794443), abemaciclib (NSC 768073), sotorasib (NSC818433), adagrasib (NSC 831453), MRTX-1133 (NSC 836407), Iadademestat (ORY1001, NSC 806812), and RMC-4630 (NSC839698), were obtained from the NCI Developmental Therapeutics Program Chemical Repository. The FDA-approved anticancer drug set is available from the Developmental Therapeutics Program at https://dtp.cancer.gov/organization/dscb/obtaining/available plates.htm. […] The stock solutions were prepared in dimethyl sulfoxide (DMSO, Sigma-Aldrich, St. Louis, MO, cat. D2650) at 800-fold the tested concentration and stored at -70 degrees C prior to their use. All drugs and investigational agents were tested over a range starting from a high concentration at or near the clinical Cmax and decreasing in half-log increments. If the clinical Cmax for an agent had not been determined, the highest concentration tested was 10 microM.
The patient-derived cancer (PDC) cell lines include five colon adenocarcinomas: 186277-243-T-J2-PDC, 616215-338-R-J1-PDC, 439559-082-T-J2-PDC, 463943-066-T-J2-PDC, and 519858-162-T-J1-PDC; three pancreatic carcinomas: 323965-272-R-J2-PDC, 521955-158-R6-J3-PDC, and 521955-158-R2-J5-PDC; two uterine sarcomas: 327498-152-R-J2-PDC and 993429-296-R-J1-PDC; two rhabdomyosarcomas: 755483-174-R-J1-PDC and 772245-204-R-J1-PDC; two soft tissue sarcomas: 126254-015-R-J1-PDC and 494315-158-R-J1-PDC; two malignant fibrous histiocytomas: 317291-083-R-J1-PDC and 596521-263-R-J1-PDC; two breast carcinomas: 171881-019-R-J1-PDC and 885512-296-R-J2-PDC; and one ovarian carcinoma: 6556581-035-R-J-PDC were obtained from the NCI PDMR, (https://pdmr.cancer.gov). The established cell lines HSSY-2 synovial sarcoma (RRID:CVCL 8719), SYO-1 synovial sarcoma (RRID:CVCL_7146), MPNST malignant peripheral neural sheath tumor were obtained from the Sloan Kettering Institute. The following established cell lines were purchased from the American Type Culture Collection (ATCC, Manassas, VA), Sor the received from the NCI repository:, PANC-1 pancreatic carcinoma (CRL-1469, RRID:CVCL_0480), OVCAR-5 ovarian carcinoma (RRID:CVCL_1628), OVCAR-8 ovarian carcinoma (RRID:CVCL_1629), , MCF-7 breast carcinoma (CRL-12584, RRID:CVCL_0031), MDA-MB-231 breast carcinoma (CRL-12532, RRID:CVCL_0062), NCI-H1876 small cell lung carcinoma (CRL-5902, RRID:CVCL_1503), NCI-H510A small cell lung carcinoma (HTB-184, RRID:CVCL_1565), NCI-H1417 (CRL-5869, RRID:CVCL_1469), and NCI-H196 small cell lung carcinoma (CRL-5823, RRID:CVCL_1509). Dr. Peter Houghton (Greehey Children's Cancer Research Institute, University of Texas Health Science Center, San Antonio, TX) provided Rh-18 rhabdomyosarcoma (RRID:CVCL_1659). Pooled donor human umbilical vein endothelial cells (HUVEC, Lonza, cat. CC-2519) and human mesenchymal stem cells (hMSC, Lonza, cat. PT-2501) were purchased from Lonza (Walkersville, MD).
Cell Culture. […]

Where [1] appears, read: compound alone, run of 11/07/2022.

“And” between values parts separate entries of the source, which are not always exact repeats. Identical values can stand only once. Some results are limits rather than exact numbers.

For `C#Cc1c(F)ccc2cc(O)cc(-c3ncc4c(N5CC6CCC(C5)N6)nc(OCC56CCCN5CC(F)C6)nc4c3F)c12` (centres undefined), the viability, T/C was 111% and 98.5% and 108% (compound 0.0316 µM); 95.5% and 92.2% and 96.9% (compound 0.1 µM); 108% and 95.5% and 110% (compound 0.316 µM); 98.9% and 101% and 109% (compound 1 µM); 111% and 117% and 105% (compound 3.16 µM); 105% and 97.4% and 103% (compound 10 µM). For the same compound, the IC50 (curve of compound) is above 10000 nM.
Regarding `C=C(F)C(=O)N1CCN(c2nc(OCC3CCCN3C)nc3c2CCN(c2cccc4cccc(Cl)c24)C3)CC1CC#N` (centres undefined), the viability, T/C was 107% and 98.8% and 99.1% (compound 0.0316 µM); 102% (2×) and 96.3% (compound 0.1 µM); 97.5% and 101% and 100% (compound 0.316 µM); 95.2% and 101% and 113% (compound 1 µM); 97.3% and 90.3% and 92.2% (compound 3.16 µM); 0.28% and 0.79% and 0.39% (compound 10 µM). In addition, the IC50 (curve of compound) was 5540 nM and 5310 nM and 5370 nM.
`C=CC(=O)N1CCN(c2nc(=O)n(-c3c(C)ccnc3C(C)C)c3nc(-c4c(O)cccc4F)c(F)cc23)C(C)C1` (centres undefined): the viability, T/C was 100% and 96.9% and 116% (compound 0.0316 µM); 108% and 98.8% and 106% (compound 0.1 µM); 104% (2×) and 99.7% (compound 0.316 µM); 103% (2×) and 104% (compound 1 µM); 98.7% and 95.2% and 101% (compound 3.16 µM); 94.3% and 87.2% and 89.7% (compound 10 µM). Further, the IC50 (curve of compound) is above 10000 nM.
`CCN1C(C(=O)NC23CCC(C(=O)O)(CC2)CC3)C(c2cccc(Cl)c2F)C2(C(=O)Nc3cc(Cl)ccc32)C12CCCCC2` (centres undefined): the viability, T/C is 103% [middle of 9 runs] (compound 0.00949 µM); 99.3% [middle of 9 runs] (compound 0.03 µM); 25.9% [middle of 9 runs] (compound 0.3 µM); 3.45% [middle of 9 runs] (compound 0.949 µM); 1.23% [middle of 9 runs] (compound 3 µM). For the same compound, the IC50 is, setting by setting: under setting [1], 189 nM [middle of 7 runs]; (curve of compound) 142 nM and 178 nM.
For the compound `CCN1CCN(Cc2ccc(Nc3ncc(F)c(-c4cc(F)c5nc(C)n(C(C)C)c5c4)n3)nc2)CC1`, the viability, T/C reads like this: (compound 0.00316 µM) 103% (2×) and 101%; (compound 0.01 µM) 99.9% and 103% and 110%; (compound 0.0316 µM) 107% and 106% and 109%; (compound 0.1 µM) 114% and 118% and 115%; (compound 0.316 µM) 115% and 128% and 112%; (compound 1 µM) 106% and 111% and 112%. Also, the IC50 (curve of compound) was above 1000 nM.
On to `CNC(C)C(=O)NC1CN(S(=O)(=O)c2cccc(S(=O)(=O)N3CCC4CCC(C(=O)NC(c5ccccc5)c5ccccc5)N4C(=O)C(NC(=O)C(C)NC)C3)c2)CCC2CCC(C(=O)NC(c3ccccc3)c3ccccc3)N2C1=O` (centres undefined), for which the viability, T/C by setting is: (compound 0.00316 µM) 109% and 90.1% and 99.2%; (compound 0.01 µM) 102% [middle of 14 runs]; (compound 0.0316 µM) 98.2% [middle of 14 runs]; (compound 0.316 µM) 98.7% [middle of 14 runs]; (compound 1 µM) 96.6% [middle of 14 runs]. Moreover, the IC50 (compound alone, run of 10/24/2022) is above 1000 nM; the IC50 (compound alone, run of 11/15/2022) is above 1000 nM; the IC50 (curve of compound) is above 1000 nM.
With `COc1c(OCCCN2CCOCC2)ccc2c3n(c(=NC(=O)c4cnc(N)nc4)nc12)CCN3`, the viability, T/C was 111% and 102% and 109% (compound 0.00316 µM); 105% and 112% and 114% (compound 0.01 µM); 95.3% and 108% and 113% (compound 0.0316 µM); 95.4% and 101% and 107% (compound 0.1 µM); 76.1% and 87.7% and 90.5% (compound 0.316 µM); 40.2% and 46.1% and 63.6% (compound 1 µM). Moreover, the IC50 (curve of compound) is 741 nM and 900 nM and > 1000 nM.
With `Cc1c(S(C)(=O)=O)c(-c2cc(F)cc(N3CCN(c4ccc(NS(=O)(=O)c5ccc(NC(CCN6CCC(C(=O)OCCCP(=O)(O)O)CC6)CSc6ccccc6)c(S(=O)(=O)C(F)(F)F)c5)cc4)CC3)c2)c(-c2ccc(Cl)cc2)n1C(C)C` (centres undefined), the viability, T/C by setting is: (compound 0.0316 µM) 102% [middle of 7 runs]; (compound 0.1 µM) 100% [middle of 7 runs]; (compound 0.316 µM) 96.5% [middle of 7 runs]; (compound 1 µM) 90.6% [middle of 7 runs]; (compound 3.16 µM) 88.6% [middle of 7 runs]; (compound 10 µM) 79% [middle of 7 runs]. Further, under setting [1], the IC50 was above 10000 nM.
On to `Cc1nc(N2CCC3(CC2)COC(C)C3N)c(CO)nc1Sc1ccnc(N)c1Cl` (centres undefined), for which the viability, T/C (compound 0.00949 µM) is 107% and 98.7% and 112%; the viability, T/C (compound 0.03 µM) is 112% and 94% and 111%; the viability, T/C (compound 0.0949 µM) was 107% and 116% and 103%; the viability, T/C (compound 0.3 µM) was 108% and 109% (2×); the viability, T/C (compound 0.949 µM) is 112% and 114% and 107%; the viability, T/C (compound 3 µM) is 103% and 100% and 109%. The IC50 (curve of compound) is above 3000 nM.
Regarding `Cn1ncnc1[C@H]1c2n[nH]c(=O)c3cc(F)cc(c23)N[C@@H]1c1ccc(F)cc1`, the viability, T/C is 105% and 109% and 104% (compound 0.000316 µM); 103% and 106% and 95.2% (compound 0.001 µM); 104% and 97.3% and 107% (compound 0.00316 µM); 87.3% and 95.5% and 98.1% (compound 0.01 µM); 53.5% and 74.9% and 64.4% (compound 0.0316 µM); 15% and 91.9% and 12.5% (compound 0.1 µM). The IC50 (curve of compound) is 34.8 nM and > 100 nM and 43.5 nM.
In the case of `NC(=O)C(=Cn1cnc(-c2cc(C(F)(F)F)cc(C(F)(F)F)c2)n1)c1cncnc1`, the viability, T/C (compound 0.000949 µM) is 97.3% and 93.8% and 106%; the viability, T/C (compound 0.003 µM) was 98.8% and 101% and 104%; the viability, T/C (compound 0.00949 µM) was 97.4% and 98% and 95.6%; the viability, T/C (compound 0.03 µM) was 96.9% and 95.8% and 107%; the viability, T/C (compound 0.0949 µM) was 95.9% and 94.2% and 99.5%; the viability, T/C (compound 0.3 µM) is 13.3% and 16.5% and 42.3%. Also, the IC50 (curve of compound) was 180 nM and 183 nM and 257 nM.
On to `NC1CCC(NC2CC2c2ccccc2)CC1` (centres undefined), for which the viability, T/C (compound 0.000316 µM) is 108% and 106% and 112%; the viability, T/C (compound 0.001 µM) was 102% and 97% and 97.1%; the viability, T/C (compound 0.00316 µM) was 90.9% and 95.4% and 93.3%; the viability, T/C (compound 0.01 µM) was 94.7% and 89.3% and 92.9%; the viability, T/C (compound 0.0316 µM) was 91.9% and 96.6% and 88.2%; the viability, T/C (compound 0.1 µM) was 90.8% and 84.5% and 86.5%. In addition, under “curve of compound”, the IC50 was above 100 nM.
Regarding `O=C(c1cc(Cc2n[nH]c(=O)c3ccccc23)ccc1F)N1CCN(C(=O)C2CC2)CC1`, the viability, T/C (compound 0.0316 µM) was 96.5% and 98.2% and 111%; the viability, T/C (compound 0.1 µM) is 91.4% and 91.9% and 103%; the viability, T/C (compound 0.316 µM) was 102% and 99.6% and 101%; the viability, T/C (compound 1 µM) is 96.7% and 105% and 95.2%; the viability, T/C (compound 3.16 µM) is 38% and 49.1% and 73.5%; the viability, T/C (compound 10 µM) was 6.76% and 6.7% and 10.1%. The IC50 (curve of compound) is 2500 nM and 3100 nM and 4810 nM.
Turning to `O=C(c1ccc(F)c(F)c1Nc1ccc(I)cc1F)N1CC(O)([C@@H]2CCCCN2)C1`, the viability, T/C is 105% and 97.6% and 106% (compound 0.00316 µM); 104% and 97% and 105% (compound 0.01 µM); 103% (2×) and 102% (compound 0.0316 µM); 108% (2×) and 102% (compound 0.1 µM); 111% and 99.2% and 96.4% (compound 0.316 µM); 104% and 106% and 101% (compound 1 µM). The IC50 (curve of compound) is above 1000 nM.

As a reminder, the viability, T/C is the result in the treated group divided by that in the control group, in per cent. The term IC50 denotes the concentration that gives 50% inhibition.
